From patent US7767685B2, “Adenosine A2B receptor antagonists” (King Pharmaceuticals Research and Development, Inc., priority 2006, dated 2010)

How the values were obtained:
[1] = molecular target: T1, human A2B adenosine receptors (Homo sapiens, UniProt P29275); assay: Displacement of [3H]MRE2029F20 binding at human A2B adenosine receptors; details: [3H]MRE2029F20 displacement, human A2B receptors (footnote: HEK293 cells; method: CHO cells), n = 3-6; geometric mean (95% confidence limits); read-out: Ki hA2B
T1 construct: expressed in transfected cells; host or cells: CHO cells (whole cells)
T1 sequence (P29275 1-332): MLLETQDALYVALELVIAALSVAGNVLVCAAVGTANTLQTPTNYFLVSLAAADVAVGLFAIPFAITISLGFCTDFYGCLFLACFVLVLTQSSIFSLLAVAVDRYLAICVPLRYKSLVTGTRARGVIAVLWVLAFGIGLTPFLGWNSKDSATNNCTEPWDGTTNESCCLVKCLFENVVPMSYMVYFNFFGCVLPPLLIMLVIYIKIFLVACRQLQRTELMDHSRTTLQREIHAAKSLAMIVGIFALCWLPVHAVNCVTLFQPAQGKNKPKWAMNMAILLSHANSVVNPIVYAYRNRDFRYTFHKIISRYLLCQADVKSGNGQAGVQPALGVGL
Description: […] (Naunyn-Schmied. Arch Pharm. 1998, 357: 1-9). Briefly, the cells are grown adherently and maintained in Dulbecco's Modified Eagles Medium with nutrient mixture F12 (DMEM/F12) without nucleosides, containing 10% fetal calf serum, penicillin (100 U/mL), streptomycin (100 μg/mL), L-glutamine (2 mM) and Geneticin (G418, 0.2 mg/ml) at 37° C. in 5% CO2/95% air. For membrane preparation the culture medium is removed and the cells are washed with phosphate-buffered saline and scraped off T75 flasks in ice-cold hypo tonic buffer (5 mM Tris HCl, 1 mM EDTA, pH 7.4). The cell suspension is homogenized with Polytron, the homogenate is spun for 10 min at 1000×g and the supernatant is then centrifuged for 30 min at 100,000×g. The membrane pellet is suspended in 50 mM Tris HCl buffer (pH 7.4) for A1 adenosine receptors, in 50 mM Tris HCl, 10 mM MgCl2 (pH 7.4) for A2A adenosine receptors, in 50 mM Tris HCl, 10 mM MgCl2, 1 mM EDTA (pH 7.4) for A2B and A3 adenosine receptors.
All new synthesized compounds have been tested to evaluate their affinity to human A1, A2A, A2B and A3 adenosine receptors. […] Pharmacol., 2000, 57: 968-975). Non-specific binding is determined in the presence of 10 μM of CHA and this is always ≦10% of the total binding. […] recombinant A2A adenosine receptors is performed using a suspension of membranes (50 μg of protein/assay) and at least 6-8 different concentrations of studied antagonists for an incubation time of 60 min at 4° C. Non-specific binding is determined in the presence of 1 μM ZM 241385 and is about 20% of total binding. […] Non-specific binding is defined as binding in the presence of 1 μM MRE 3029F20 and is about 25% of total binding. […] Non-specific binding is defined as binding in the presence of 1 μM MRE 3008F20 and is about 25% of total binding. Bound and free radioactivity are separated by filtering the assay mixture through Whatman GF/B glass fiber filters using a Micro-Mate 196 cell harvester (Packard Instrument Co.). The filter bound radioactivity is counted on a Top Count (efficiency 57%) with Micro-Scint 20.
(§1) The protein concentration is determined according to a Bio-Rad method (Bradford, Anal Biochem. 1976, 72: 248-254) with bovine albumin as a standard reference. Inhibitory binding constant, Ki, values are calculated from those of IC50 according to Cheng & Prusoff equation (Biochem. Pharmacol 1973, 22: 3099-3108): Ki=IC50/(1+[C*]/KD*) where [C*] is the concentration of the radioligand and KD* its dissociation constant. A weighted non linear least-squares curve fitting program LIGAND (Munson et al., Anal. Biochem 1980, 107: 220-239) is used for computer analysis of inhibition experiments Data are expressed as geometric mean with 95% confidence limits in parentheses. Examples of Animal Models

[2] = molecular target: T1, human A2B adenosine receptors; assay: cAMP assay in CHO cells expressing human A2B adenosine receptors (antagonism of NECA-induced cAMP); assay type: cell-based; details: antagonism of NECA (100 nM)-induced cAMP, geometric mean (95% confidence limits), read-out: IC50 hA2B (cAMP assay)
Description: Measurement of Cyclic AMP Levels in CHO Cells Transfected with Human A2B Adenosine Receptors
CHO cells transfected with human A2B adenosine receptors are washed with phosphate-buffered saline, diluted trypsine and centrifuged for 10 min at 200 g. The pellet containing the CHO cells (1×10^6 cells/assay) is suspended in 0.5 mL of incubation mixture: NaCl 150 mM, KCl 2.7 mM, NaH2PO4 0.37 mM, MgSO4 1 mM, CaCl2 1 mM, Hepes 5 mM, MgCl2 10 mM, glucose 5 mM, pH 7.4 at 37° C. Then 2.0 IU/mL adenosine deaminase and 0.5 mM 4-(3-butoxy-4-methoxybenzyl)-2-imidazolidinone (Ro 20-1724) as phosphodiesterase inhibitor are added and preincubated for 10 min a shaking bath at 37° C. The potency of antagonists studied are determined by antagonism of NECA (100 nM)-induced stimulation of cyclic AMP levels. The reaction is terminated by the addition of cold 6% thrichloroacetic acid (TCA). The TCA suspension is centrifuged at 2000 g for 10 min at 4° C. and the supernatant is extracted four times with water saturated diethyl ether. The final aqueous solution is tested for cyclic AMP levels by a competition protein binding assay. Samples of cyclic AMP standard ([…]) are added to each test tube containing the incubation buffer (trizma base 0.1 M, aminophylline 8.0 mM, 2-mercaptoethanol 6.0 mM (pH 7.4) and [^3H]cyclic AMP in a total volume of 0.5 mL. The binding protein previously prepared from beef adrenals, is added to the samples previously incubated at 4° C. for 150 min, and after the addition of charcoal are centrifuged at 2000 g for 10 min. The clear supernatant is counted with 4 mL of Atomlight liquid scintillator and counted in a Tri Carb Packard 2500 TR scintillation counter.
as §1

Row | Ki [1] [µM] | IC50 [2] [µM] | SMILES
1 | 0.056 | 0.212 | CCCn1c(=O)c2[nH]c(-c3cc(C)n(CC(=O)Nc4ccc(C)cc4)n3)nc2n(CCC)c1=O [Example 17, 2-[3-(2,6-Dioxo-1,3-dipropyl-2,3,6,7-tetrahydro-1H-purin-8-yl)-5-methyl-pyrazol-1-yl]-N-p-tolyl-acetamide]
2 | 0.065 | 0.266 | CCCn1c(=O)c2[nH]c(-c3cc(C)n(CC(=O)Nc4cccc(OC)c4)n3)nc2n(CCC)c1=O [Example 14, 2-[3-(2,6-Dioxo-1,3-dipropyl-2,3,6,7-tetrahydro-1H-purin-8-yl)-5-methyl-pyrazol-1-yl]-N-(3-methoxylphenyl)-acetamide]
3 | 0.028 | 0.106 | CCCn1c(=O)c2[nH]c(-c3cc(C)n(CC(=O)Nc4cccc(Cl)c4)n3)nc2n(CCC)c1=O [Example 15, 2-[3-(2,6-Dioxo-1,3-dipropyl-2,3,6,7-tetrahydro-1H-purin-8-yl)-5-methyl-pyrazol-1-yl]-N-(3-chlorophenyl)-acetamide]
4 | > 1 | > 1 | CCCn1c(=O)c2[nH]c(-c3cc(C)n(CC(=O)Nc4ccc(C(C)CC)cc4)n3)nc2n(CCC)c1=O (stereo not shown) [Example 12, 2-[3-(2,6-Dioxo-1,3-dipropyl-2,3,6,7-tetrahydro-1H-purin-8-yl)-5-methyl-pyrazol-1-yl]-N-(4-sec-butylphenyl)-acetamide]
5 | 0.028 | 0.115 | CCCn1c(=O)c2[nH]c(-c3cc(C)n(CC(=O)Nc4ccc(I)cc4)n3)nc2n(CCC)c1=O [Example 2, 2-[3-(2,6-Dioxo-1,3-dipropyl-2,3,6,7-tetrahydro-1H-purin-8-yl)-5-methyl-pyrazol-1-yl]-N-(4-iodophenyl)-acetamide]
6 | 0.014 | 0.068 | CCCn1c(=O)c2[nH]c(-c3cc(C)n(CC(=O)Nc4ccc(F)cc4)n3)nc2n(CCC)c1=O [Example 5, 2-[3-(2,6-Dioxo-1,3-dipropyl-2,3,6,7-tetrahydro-1H-purin-8-yl)-5-methyl-pyrazol-1-yl]-N-(4-fluoro-phenyl)-acetamide]
7 | 0.015 | 0.058 | CCCn1c(=O)c2[nH]c(-c3cc(C)n(CC(=O)Nc4ccccc4)n3)nc2n(CCC)c1=O [Example 1, 2-[3-(2,6-Dioxo-1,3-dipropyl-2,3,6,7-tetrahydro-1H-purin-8-yl)-5-methyl-pyrazol-1-yl]-N-phenyl-acetamide]
8 | 0.012 | 0.061 | CCCn1c(=O)c2[nH]c(-c3cc(C)n(CC(=O)Nc4ccc(OC)cc4)n3)nc2n(CCC)c1=O [Example 6, 2-[3-(2,6-Dioxo-1,3-dipropyl-2,3,6,7-tetrahydro-1H-purin-8-yl)-5-methyl-pyrazol-1-yl]-N-(4-methoxyphenyl)-acetamide]

The remaining lines, values behind:

Row | SMILES | Ki [1] [µM] | IC50 [2] [µM]
9 | CCCn1c(=O)c2[nH]c(-c3nn(CC(=O)Nc4ccc(Cl)cc4)c(C)c3Br)nc2n(CCC)c1=O [Example 19, 2-[4-Bromo-3-(2,6-dioxo-1,3-dipropyl-2,3,6,7-tetrahydro-1H-purin-8-yl)-5-methyl-pyrazol-1-yl]-N-(4-chlorophenyl)-acetamide] | 0.25 | > 1
10 | CCCn1c(=O)c2[nH]c(-c3cc(C)n(CC(=O)Nc4ccc(C)c(C)c4)n3)nc2n(CCC)c1=O [Example 7, 2-[3-(2,6-Dioxo-1,3-dipropyl-2,3,6,7-tetrahydro-1H-purin-8-yl)-5-methyl-pyrazol-1-yl]-N-(3,4-dimethylphenyl)-acetamide] | 0.048 | 0.2
11 | CCCn1c(=O)c2[nH]c(-c3cc(C)n(CC(=O)Nc4ccc(Cl)c(Cl)c4)n3)nc2n(CCC)c1=O [Example 16, 2-[3-(2,6-Dioxo-1,3-dipropyl-2,3,6,7-tetrahydro-1H-purin-8-yl)-5-methyl-pyrazol-1-yl]-N-(3,4-dichlorophenyl)-acetamide] | 0.04 | 0.188
12 | CCCn1c(=O)c2[nH]c(-c3cc(C)n(CC(=O)Nc4ccc(OC)c(OC)c4)n3)nc2n(CCC)c1=O [Example 8, 2-[3-(2,6-Dioxo-1,3-dipropyl-2,3,6,7-tetrahydro-1H-purin-8-yl)-5-methyl-pyrazol-1-yl]-N-(3,4-dimethoxyphenyl)-acetamide] | 0.06 | 0.222
13 | CCCn1c(=O)c2[nH]c(-c3ccn(CC(=O)Nc4ccc(Cl)cc4)n3)nc2n(CCC)c1=O [Example 10, 2-[3-(2,6-Dioxo-1,3-dipropyl-2,3,6,7-tetrahydro-1H-purin-8-yl)-pyrazol-1-yl]-N-(4-chloro-phenyl)-acetamide] | 0.02 | 0.08
14 | CCCn1c(=O)c2[nH]c(-c3nn(CC(=O)Nc4ccc(Cl)cc4)c(C)c3Cl)nc2n(CCC)c1=O [Example 18, 2-[4-Chloro-3-(2,6-dioxo-1,3-dipropyl-2,3,6,7-tetrahydro-1H-purin-8-yl)-5-methyl-pyrazol-1-yl]-N-(4-chlorophenyl)-acetamide] | 0.222 | > 1
